# Test results as given in patent US11419806B2, “Prebiotic oral care methods using a saccharide” (Colgate-Palmolive Company, priority 2013, dated 2022).
# Key:
# Assay in all cases: Twenty-four hour biofilm growth (crystal violet)
# Assay type in all cases: cell-based
# P. intermedia = test system: P. intermedia
# Method: (§1) The increase in biofilm formation of the tested bacteria in response to selected saccharides (D-turanose, D-lactitol, myo-inositol, and N-acetyl-D-mannosamine) was investigated by setting up biofilm growth assays in a nutritionally rich medium (brain heart infusion broth (BHI), Oxoid), over 24 hours. Late exponential growth phase liquid cultures were prepared by transferring the respective bacterium from blood agar plates to BHI and overnight incubation at 37° C. in an anaerobic atmosphere for A. viscosus, V. parvula, P. gingivalis, P. intermedia, T. forsythia, A. naeslundii, and C. sputigena, and in a 5% CO2 environment for S. salivarius, S. sanguinis, S. mitis, A. actinomycetemcomitans, S. mutans, and S. gordonii. Overnight cultures were transferred to BHI and adjusted to a concentration of 1×10^7 CFU/ml by measuring the optical density at 600 nm (OD600) (BioRad SmartSpec 3000). For each strain, 200 μl of the bacterial suspension was added to a 96-well plate containing 20 μl of the respective saccharides. Final concentrations of the saccharides were set to 5, 10, 20 and 25 μmol/ml. […] Additionally, for each bacterium tested, a background control, to correct for background staining, was added. This background control contained the bacterium tested and 0.03 weight % chlorhexidine, as an antiseptic. Plates were incubated as previously described. After 24 hrs the supernatant was removed from the wells of the plates. The wells were washed twice with 1×100 μL PBS (phosphate buffered saline), fixed for 20 minutes with 96% vol. ethanol (96% vol. solution in water) and the biofilm retained at the bottom of the wells was stained with 1 weight % crystal violet (1 weight % solution in water). The bound dye was dissolved with 5% vol. acetic acid (5% vol. solution in water). Quantification of the stained biofilm was performed by measuring the absorbance at 630 nm using a Multiskan Ascent microplate reader (Thermo Scientific).
# (§2) The experiment was carried out on three different days (thus providing 3 biological replicas) and each day the experiment was carried out in quadruple (thus providing 4 technical replicas) for each combination of bacterium with saccharide and for each control. For each day and for each combination, the average (mean) of the values obtained (as detailed above) for the four technical replicas was calculated to provide a single value for each combination on each day. The values shown in Tables 7a, 7b, 8a, 8b, below, are the average (mean) of the three single values obtained for each combination of bacterium with saccharide.
# S. sanguinis = test system: S. sanguinis
# Method: as §1, §2
# V. parvula = test system: V. parvula
# Method: as §1, §2
# A. actinomycetemcomitans = test system: A. actinomycetemcomitans
# Method: as §1, §2
# S. mitis = test system: S. mitis
# Method: as §1, §2
# S. gordonii = test system: S. gordonii
# Method: as §1, §2
# S. salivarius = test system: S. salivarius
# Method: as §1, §2
# C. sputigena = test system: C. sputigena
# Method: as §1, §2
# A. naeslundii = test system: A. naeslundii
# Method: as §1, §2
# A. viscosus = test system: A. viscosus
# Method: as §1, §2
# T. forsythia = test system: T. forsythia
# Method: as §1, §2
# P. gingivalis = test system: P. gingivalis
# Method: as §1, §2
# S. mutans = conditions: S mutans
# Method: as §1, §2
structure (smiles),measurement,setting,value
"CC(=O)N[C@H](C=O)[C@@H](O)[C@H](O)[C@H](O)CO [N-acetyl-D-mannosamine, 2-acetamido-2-deoxy-D-mannose]",biofilm growth: OD 630 nm at 24 hrs divided by OD of control (control = 1),P. intermedia; 5 μmol/ml,1.1437
same,biofilm growth: OD 630 nm at 24 hrs divided by OD of control (control = 1),P. intermedia; 10 μmol/ml,1.5179
same,biofilm growth: OD 630 nm at 24 hrs divided by OD of control (control = 1),P. intermedia; 20 μmol/ml,1.0689
same,biofilm growth: OD 630 nm at 24 hrs divided by OD of control (control = 1),P. intermedia; 25 μmol/ml,1.2252
same,biofilm growth: OD 630 nm at 24 hrs divided by OD of control (control = 1),S. sanguinis; 5 μmol/ml,1.5651
same,biofilm growth: OD 630 nm at 24 hrs divided by OD of control (control = 1),S. sanguinis; 10 μmol/ml,2.4890
same,biofilm growth: OD 630 nm at 24 hrs divided by OD of control (control = 1),S. sanguinis; 20 μmol/ml,0.5600
same,biofilm growth: OD 630 nm at 24 hrs divided by OD of control (control = 1),S. sanguinis; 25 μmol/ml,1.0289
same,biofilm growth: OD 630 nm at 24 hrs divided by OD of control (control = 1),V. parvula; 5 μmol/ml,0.3811
same,biofilm growth: OD 630 nm at 24 hrs divided by OD of control (control = 1),V. parvula; 10 μmol/ml,1.0958
same,biofilm growth: OD 630 nm at 24 hrs divided by OD of control (control = 1),V. parvula; 20 μmol/ml,0.1297
same,biofilm growth: OD 630 nm at 24 hrs divided by OD of control (control = 1),V. parvula; 25 μmol/ml,0.3718
same,biofilm growth: OD 630 nm at 24 hrs divided by OD of control (control = 1),A. actinomycetemcomitans; 5 μmol/ml,0.9519
same,biofilm growth: OD 630 nm at 24 hrs divided by OD of control (control = 1),A. actinomycetemcomitans; 10 μmol/ml,1.0569
same,biofilm growth: OD 630 nm at 24 hrs divided by OD of control (control = 1),A. actinomycetemcomitans; 20 μmol/ml,0.6532
same,biofilm growth: OD 630 nm at 24 hrs divided by OD of control (control = 1),A. actinomycetemcomitans; 25 μmol/ml,0.7158
same,biofilm growth: OD 630 nm at 24 hrs divided by OD of control (control = 1),S. mitis; 5 μmol/ml,2.4328
same,biofilm growth: OD 630 nm at 24 hrs divided by OD of control (control = 1),S. mitis; 10 μmol/ml,4.2456
same,biofilm growth: OD 630 nm at 24 hrs divided by OD of control (control = 1),S. mitis; 20 μmol/ml,2.1524
same,biofilm growth: OD 630 nm at 24 hrs divided by OD of control (control = 1),S. mitis; 25 μmol/ml,3.0078
same,biofilm growth: OD 630 nm at 24 hrs divided by OD of control (control = 1),S. gordonii; 5 μmol/ml,0.7178
same,biofilm growth: OD 630 nm at 24 hrs divided by OD of control (control = 1),S. gordonii; 10 μmol/ml,1.0041
same,biofilm growth: OD 630 nm at 24 hrs divided by OD of control (control = 1),S. gordonii; 20 μmol/ml,0.5487
same,biofilm growth: OD 630 nm at 24 hrs divided by OD of control (control = 1),S. gordonii; 25 μmol/ml,0.6746
same,biofilm growth: OD 630 nm at 24 hrs divided by OD of control (control = 1),S. salivarius; 5 μmol/ml,0.6489
same,biofilm growth: OD 630 nm at 24 hrs divided by OD of control (control = 1),S. salivarius; 10 μmol/ml,0.6824
same,biofilm growth: OD 630 nm at 24 hrs divided by OD of control (control = 1),S. salivarius; 20 μmol/ml,0.3314
same,biofilm growth: OD 630 nm at 24 hrs divided by OD of control (control = 1),S. salivarius; 25 μmol/ml,0.3520
same,biofilm growth: OD 630 nm at 24 hrs divided by OD of control (control = 1),C. sputigena; 5 μmol/ml,0.9108
same,biofilm growth: OD 630 nm at 24 hrs divided by OD of control (control = 1),C. sputigena; 10 μmol/ml,0.9323
same,biofilm growth: OD 630 nm at 24 hrs divided by OD of control (control = 1),C. sputigena; 20 μmol/ml,0.8871
same,biofilm growth: OD 630 nm at 24 hrs divided by OD of control (control = 1),C. sputigena; 25 μmol/ml,0.8822
same,biofilm growth: OD 630 nm at 24 hrs divided by OD of control (control = 1),A. naeslundii; 5 μmol/ml,1.3056
same,biofilm growth: OD 630 nm at 24 hrs divided by OD of control (control = 1),A. naeslundii; 10 μmol/ml,1.4302
same,biofilm growth: OD 630 nm at 24 hrs divided by OD of control (control = 1),A. naeslundii; 20 μmol/ml,1.1823
same,biofilm growth: OD 630 nm at 24 hrs divided by OD of control (control = 1),A. naeslundii; 25 μmol/ml,1.2220
same,biofilm growth: OD 630 nm at 24 hrs divided by OD of control (control = 1),A. viscosus; 5 μmol/ml,0.8126
same,biofilm growth: OD 630 nm at 24 hrs divided by OD of control (control = 1),A. viscosus; 10 μmol/ml,0.9165
same,biofilm growth: OD 630 nm at 24 hrs divided by OD of control (control = 1),A. viscosus; 20 μmol/ml,0.5093
same,biofilm growth: OD 630 nm at 24 hrs divided by OD of control (control = 1),A. viscosus; 25 μmol/ml,0.6492
same,biofilm growth: OD 630 nm at 24 hrs divided by OD of control (control = 1),T. forsythia; 5 μmol/ml,0.6028
same,biofilm growth: OD 630 nm at 24 hrs divided by OD of control (control = 1),T. forsythia; 10 μmol/ml,0.9745
same,biofilm growth: OD 630 nm at 24 hrs divided by OD of control (control = 1),T. forsythia; 20 μmol/ml,0.4562
same,biofilm growth: OD 630 nm at 24 hrs divided by OD of control (control = 1),T. forsythia; 25 μmol/ml,0.5433
same,biofilm growth: OD 630 nm at 24 hrs divided by OD of control (control = 1),P. gingivalis; 5 μmol/ml,0.6683
same,biofilm growth: OD 630 nm at 24 hrs divided by OD of control (control = 1),P. gingivalis; 10 μmol/ml,0.8031
same,biofilm growth: OD 630 nm at 24 hrs divided by OD of control (control = 1),P. gingivalis; 20 μmol/ml,0.7270
same,biofilm growth: OD 630 nm at 24 hrs divided by OD of control (control = 1),P. gingivalis; 25 μmol/ml,0.8345
same,biofilm growth: OD 630 nm at 24 hrs divided by OD of control (control = 1),S. mutans; 5 μmol/ml,0.8572
same,biofilm growth: OD 630 nm at 24 hrs divided by OD of control (control = 1),S. mutans; 10 μmol/ml,0.8329
same,biofilm growth: OD 630 nm at 24 hrs divided by OD of control (control = 1),S. mutans; 20 μmol/ml,0.7015
same,biofilm growth: OD 630 nm at 24 hrs divided by OD of control (control = 1),S. mutans; 25 μmol/ml,0.6922
